Test system: human neuroblastoma cell line
Assay: Release of noradrenaline induced by TPA/Ionomycin in a neuroblastoma cell line, quantified by ELISA
Type: cell-based
Conditions: TPA/ION control = 100
Method: Quantification of the Release of Noradrenaline Induced by TPA/Ionomycin in a Neuroblastoma Cell Line by ELISA
The induction of the release of noradrenaline with TPA (12-O-tetradecanoylphorbol-13-acetate)/lonomycin enables direct measurement of neuronal exocytosis. For the study of the inhibitory effect of the compounds of the invention on the release of noradrenaline, cells of a human neuroblastoma cell line were pre-incubated (1×10^6 cells/well) for 60 minutes with the compound of the invention (1 μM, 10 μM, 100 μM, 500 μM or 1 mM compounds), and afterwards the release of noradrenaline was induced. The release of the noradrenaline neurotransmitter was induced by an 8 minute pre-treatment with a solution of 12-O-tetradecanoylphorbol-13-acetate (TPA) 100 nM, which mobilized the intracellular vesicles which contained the neuro-transmitter; followed by a 5 minute incubation with TPA/Ionomycin (100 nM/10 μM), which induced the release of the neurotransmitter contained in these vesicles. […] For this, absorbance at 405 nm was measured in Thermo Scientific Multiskan Ascent equipment.
The blocking of the SNARE complex by the compounds of the invention lead to an inhibition of neuronal exocytosis and therefore, a decrease in the levels of released noradrenaline (Table 6).

| Substance | % RELEASED NORADRENALINE Average (dose 1 μM) | % RELEASED NORADRENALINE Average (dose 10 μM) | % RELEASED NORADRENALINE Average (dose 100 μM) | % RELEASED NORADRENALINE Average (dose 500 μM) | % RELEASED NORADRENALINE Average (dose 1000 μM) |
| --- | --- | --- | --- | --- | --- |
| Ac-NDIAQM-NH2 [Ac-SEQ ID NO:30-NH2] | 99.59% | 94.48% | 74.79% | 48.07% | 41.05% |
| Ac-RDFDQW-NH2 [Ac-SEQ ID NO:31-NH2] | – | 83.33% | 69.07% | – | 31.72% |

From patent US9393187B2, “Peptide compounds that inhibit neuronal exocytosis” (LUBRIZOL ADVANCED MATERIALS, INC., priority 2012, dated 2016)
